In ChEMBL document CHEMBL5131411, “Evaluation of amentoflavone metabolites on PARP-1 inhibition and the potentiation on anti-proliferative effects of carboplatin in A549 cells” (Bioorg Med Chem Lett, 2022):
Active and inactive are the calls of the source. No cut-off for these calls is given here.

What was measured:
A549 [1] = experiment: Potentiation of carboplatin induced antiproliferative activity against human A549 cells assessed as increase in apoptotic cells at 0.1 to 10 uM by Annexin V-PI double staining based flow cytometric analysis; type: functional, cell-based; conditions: dose 0.1-10 µM
[2] = target: Poly [ADP-ribose] polymerase 1 (Homo sapiens, UniProt P09874); experiment: Inhibition of PARP1 (unknown origin)
Sequence of Poly [ADP-ribose] polymerase 1 (P09874 whole entry): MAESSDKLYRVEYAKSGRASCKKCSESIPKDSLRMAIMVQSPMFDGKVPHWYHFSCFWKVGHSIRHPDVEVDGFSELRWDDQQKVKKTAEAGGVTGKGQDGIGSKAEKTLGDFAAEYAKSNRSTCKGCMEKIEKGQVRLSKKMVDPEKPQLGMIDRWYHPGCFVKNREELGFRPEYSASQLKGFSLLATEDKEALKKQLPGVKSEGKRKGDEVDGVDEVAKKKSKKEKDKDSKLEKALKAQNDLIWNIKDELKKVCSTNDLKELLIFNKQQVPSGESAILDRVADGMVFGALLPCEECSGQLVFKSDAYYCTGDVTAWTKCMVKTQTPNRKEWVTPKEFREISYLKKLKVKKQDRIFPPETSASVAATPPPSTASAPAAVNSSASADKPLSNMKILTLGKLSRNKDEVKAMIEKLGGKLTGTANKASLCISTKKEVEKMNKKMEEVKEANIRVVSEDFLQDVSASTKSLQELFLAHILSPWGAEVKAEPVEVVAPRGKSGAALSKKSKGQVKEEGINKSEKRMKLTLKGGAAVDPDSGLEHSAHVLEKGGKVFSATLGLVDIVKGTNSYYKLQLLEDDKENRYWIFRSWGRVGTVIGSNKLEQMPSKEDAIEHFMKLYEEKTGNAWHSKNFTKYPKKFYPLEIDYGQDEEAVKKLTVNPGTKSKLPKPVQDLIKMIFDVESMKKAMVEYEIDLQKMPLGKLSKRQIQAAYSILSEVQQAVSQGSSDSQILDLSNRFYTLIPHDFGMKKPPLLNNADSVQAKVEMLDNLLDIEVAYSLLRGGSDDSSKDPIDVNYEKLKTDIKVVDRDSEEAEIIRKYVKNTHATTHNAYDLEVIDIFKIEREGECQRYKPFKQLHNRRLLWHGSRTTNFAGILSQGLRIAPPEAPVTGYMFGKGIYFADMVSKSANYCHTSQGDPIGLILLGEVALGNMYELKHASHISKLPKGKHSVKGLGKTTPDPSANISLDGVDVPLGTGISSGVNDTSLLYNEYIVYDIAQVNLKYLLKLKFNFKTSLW

A549 [3] = experiment: Potentiation of carboplatin induced antiproliferative activity against human A549 cells assessed as increase in apoptotic cells at 0.1 to 10 uM by Hoechst staining based assay; type: functional, cell-based; conditions: dose 0.1-10 µM
A549 [4] = experiment: Potentiation of carboplatin induced antiproliferative activity against human A549 cells assessed as reduction in cell viability at 0.1 to 10 uM by MTT assay; type: functional, cell-based; conditions: dose 0.1-10 µM
A549 [5] = experiment: Potentiation of carboplatin induced antiproliferative activity against human A549 cells assessed as reduction in cell viability at 10 uM by MTT assay; type: functional, cell-based
A549 [6] = experiment: Potentiation of carboplatin induced antiproliferative activity against human A549 cells assessed as increase in apoptotic cells at 10 uM by Annexin V-PI double staining based flow cytometric analysis; type: functional, cell-based
A549 [7] = experiment: Potentiation of carboplatin induced antiproliferative activity against human A549 cells assessed as increase in apoptotic cells at 10 uM by Hoechst staining based assay; type: functional, cell-based

Row | IC50 [2] [µg/mL] | IC50 ([2]; read-out: IC50) [nM] | SMILES | Activity (A549 [1]) | Activity (A549 [3]) | Activity (A549 [4]) | Activity (A549 [5]) | Activity (A549 [6]) | Activity (A549 [7])
1 | 0.0804 | 170 | O=c1cc(-c2ccc(O)c(-c3c(O)cc(O)c4c(=O)cc(-c5ccc(OS(=O)(=O)O)cc5)oc34)c2)oc2cc(O)cc(O)c12 | Active | Active | Active | – | – | –
2 | – | 240 | O=c1c(O)c(-c2ccc(O)c(-c3c(O)cc(O)c4c(=O)cc(-c5ccc(OS(=O)(=O)O)cc5)oc34)c2)oc2cc(OS(=O)(=O)O)cc(O)c12 | – | – | – | – | – | –
3 | 0.1398 | 120 | O=c1cc(-c2ccc(O)c(-c3c(O)cc(O)c4c(=O)cc(-c5ccc(O)cc5)oc34)c2)oc2cc(O)cc(O)c12 [AMENTOFLAVONE] | – | – | – | Active | Active | Active
4 | 0.1158 | 510 | O=c1c(O)c(-c2ccc(O)c(-c3c(O)cc(O)c4c(=O)cc(-c5ccc(O)cc5)oc34)c2)oc2cc(OS(=O)(=O)O)cc(O)c12 | – | – | – | – | – | –
